In experiment [1] the test system is axonal mitochondrial membrane potential (ΨM). Put plainly: Mitochondrial membrane potential (JC-1 red/green ratio) in axon shafts of DRG neurons. Format: cell-based, rat. An excerpt:
Considering the above changes in mitochondrial transport, we asked if MAG and CSPG might affect mitochondrial function in axons. Functional mitochondria are needed to generate ATP, and the mitochondrion's membrane potential (ΨM) is thought to reflect its capacity for generating ATP. Increased anterograde transport of mitochondria in axons correlated with higher ΨM, as measured by the ratiometric 5,5′,6,6′-tetrachloro-1,1′,3,3′-tetraethylbenzimidazolcarbocyanine iodide (JC-1) dye (Miller and Sheetz, 2004), and reduced axonal ΨM in Drosophila melanogaster larvae was recently correlated with overall decrease in mitochondrial transport (Liao et al., 2017).
JC-1 (Life Technologies) was used for wm measurements. For this, DRG cultures were equilibrated in culture medium with […] JC-1 for 20 min at 37° C. Medium was replaced, and the cells were maintained at 37° C. in the high-content imaging system on which JC-1 fluorescent signals in green and red wavelengths were acquired. […]
Vesicle trafficking was quantified using differential ImageJ Difference Tracker Plug-in (Andrews et al., 2010). 50-80-μm long unbranched axon segments at approximately the mid-region between growth cone and cell body were analyzed. […] The distance between the growth tip at end of the post-CALI sequence and the pre-CALI baseline was measured using LAS-X software. Movement of ≥0.5 μm toward the axon shaft was counted as retracted. Fluorescence emission of the Mito-KR post-CALI was analyzed using ImageJ. For normalizing intensities across FRAP image sets, fluorescence intensity at each time point was scaled using the LAS-X FRAP module so that the residual fluorescence signal at t=0 min (post-bleach) was set at 0 and the prebleach intensity was set at 100% for each bleached ROI. For axon shaft FRAP analyses, each 50-μm bleached ROI was divided into […], and the fluorescence intensity recovery was measured as described above. […] A minimum of 75 unmyelinated axons was analyzed for each nerve. All unmyelinated axons from each analyzed image were included for quantitative studies. […]

Another experiment relates to Miro1-AcK105. Put plainly: Miro1-AcK105 levels in DRG cultures by immunoblotting and immunofluorescence. It is filed as cell-based, rat. The source says:
The three reported acetylation sites for Miro1 in human cell lines K92, K512, and K618 (Choudhary et al., 2009; Lundby et al., 2012) correspond to K105, K525, and K629 in rat Miro1 (FIG. 6 at D). We generated Lys-to-Ala mutants for K105, K525, and K629 to determine if these Miro1 residues are acetylated in neurons (Myc-Miro1K105A , Myc-Miro1K525A , and […]; FIG. 6 at D). […] To more definitively assess acetylation of K105, we used acetylated Miro1 peptides to generate an anti-Miro1-AcK105 antibody.
For immunoblotting, protein lysates or immunoprecipitates were denatured by boiling in Laemmli sample buffer, fractionated by SDS-PAGE, and transferred to nitrocellulose membranes. Blots were blocked for 1 h at room temperature with 5% nonfat dry milk in TBS with 0.1% Tween 20 (TBST). Primary antibodies diluted in 5% BSA in TBST were added to the membranes and incubated overnight at 4° C. with rocking. Primary antibodies consisted of rabbit anti-Myc (1:2,000; Cell Signaling; 71D10), rabbit anti-RHOT1 antibody (1:1,000; Aviva Systems Biology; ARP44817 P050), rabbit anti-HDAC6 antibody (1:2,000; Cell Signaling; 7558), rabbit anti-ERK1 (1:5,000; Abcam; ab32537), and affinity-purified custom rabbit anti-Miro1-AcK105 (1:2,500; Twiss laboratory, see above) antibodies. For the anti-Miro1-AcK105 antibody, preimmune and test-bleed sera were used at 1:1,000 dilutions to initially evaluate for specificity. After washing in TBST, blots were incubated with HRP-conjugated anti-rabbit IgG antibodies (1:5,000; Jackson Immunoresearch) diluted in blocking buffer for 1 h at room temperature. Signals were detected using ECL Prime (GE Healthcare) after extensive washing.
Standard immunofluorescence methods were used as previously described (Merianda et al., 2009) at room temperature unless specified otherwise. Briefly, coverslips were rinsed in PBS, fixed in buffered 3.7% PFA for 15-20 min, and washed twice in PBS. Cultures were permeabilized with PBS plus 0.3% Triton X-100 (PBST; Sigma-Aldrich) for 5 min. Coverslips were blocked in 2% BSA and 2% FBS (Gemini) for 1 h. […]
A general note: In western blotting, separated proteins are transferred to a membrane and probed.

Consider `CN1CCc2c(c3ccccc3n2Cc2ccc(C(=O)NO)cc2)C1` [TubA, tubastatin], for which, in experiment [1] (10 μM TubA), the “effect on MAG-Fc- or CSPG-dependent declines in ΨM” value is “prevented by inhibition of HDAC6 with TubA”. In addition, in experiment [1] (+10 μM TubA), the “effect on Rho activator- and thapsigargin-dependent decrease in ΨM” value is given as “also prevented by HDAC6 inhibition”. In the experiment with Miro1-AcK105 (DRG lysates ± 10 μM TubA), the anti-Miro1-AcK105 immunoblot signal result is “clear increase in signal”.

As for `C/C=C(/C)C(=O)O[C@H]1C(C)=C2[C@H]([C@@H]1OC(=O)CCCCCCC)[C@@](C)(OC(C)=O)C[C@H](OC(=O)CCC)[C@@]1(O)[C@H]2OC(=O)[C@@]1(C)O` [thapsigargin], in experiment [1] (1 μg/ml Rho activator or 1 μM thapsigargin), the “ΨM in the axons” value was “decreased ΨM”. In addition, in the experiment on Miro1-AcK105 (10 μg/ml aggrecan or 1 μM thapsigargin, 4 h), the “Miro1-AcK105 overall by immunoblotting” value is given as “decreased Miro1-AcK105”. The “Miro1-AcK105 in axons by immunofluorescence” value in the experiment on Miro1-AcK105 (aggrecan- or thapsigargin-treated cultures) is reported as “decreased Miro1-AcK105”.

Values taken from patent publication US20210330756A1, “Acetylation of Miro1” (University of South Carolina, priority 2020, published 2021).
